This note sets out measurements from US11130780B2, “Inhibitors of growth factor activation enzymes” (Washington University, priority 2015, dated 2021).

Read-outs that look alike come from different tables or passages of the source. Starred links: 1 amine or outer side, 2 acyl side, 3 side chain; linkers in the order of their positions; H or OH if unused. Non-standard residues stand in square brackets, D forms with d. Residues, ends and D or L forms follow the SMILES beside them. X1 = N=C(N)NCCC[C@H](N[*:1])C(=O)c1nc2ccc(C(=O)[*:2])cc2s1

Common to all, as to assay type: biochemical
Experiment [1] has as its target T1, HGFA (Homo sapiens, UniProt Q04756).
T1 construct: His6 tag (N); seven amino acid spacer and seven amino acid TEV cleavage site (N); Honey Bee melittin signal peptide (N); made in house; host or cells: High 5 insect cells (baculovirus; virus raised in Sf9)
T1 sequence (Q04756 373-655): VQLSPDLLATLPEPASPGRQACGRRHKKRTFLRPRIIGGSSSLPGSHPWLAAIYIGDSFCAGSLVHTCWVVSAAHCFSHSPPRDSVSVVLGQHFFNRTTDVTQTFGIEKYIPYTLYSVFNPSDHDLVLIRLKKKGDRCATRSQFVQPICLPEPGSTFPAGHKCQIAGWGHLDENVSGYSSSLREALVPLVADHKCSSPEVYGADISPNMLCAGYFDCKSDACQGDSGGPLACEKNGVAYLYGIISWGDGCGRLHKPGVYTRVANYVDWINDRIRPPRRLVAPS
Put plainly: Fluorescent kinetic enzyme inhibitor assay of HGFA. The following applies: for Ki: read-out: HGFA Ki. The procedure, abridged:
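Recombinant His-tagged HGFA residues 373-655 from insect cells, with substrate at Km. Inhibitors in 11-point dilutions, 0-20 μM final, 2% DMSO, fluorescence (ex 380/em 460 nm) followed over time at room temperature. IC50 from four-parameter fit of mean velocity, average of three experiments.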

The target in a further experiment is thrombin (Homo sapiens, UniProt P00734). Put plainly: Chromogenic kinetic enzyme assay of thrombin. The method, then: (§1) Inhibitors (11-pt serial dilutions, 0-20 μM final concentration) were serially diluted in DMSO (2% DMSO final concentration) and then mixed with recombinant thrombin (0.15 nM final concentration) or Factor Xa (0.35 nM final concentration) in TNC buffer (25 mM Tris, 150 mM NaCl, 5 mM CaCl2, 0.01% TRITON X-100, pH 8) using clear 384 well plates. […] Changes in absorbance at 405 nm were measured over time in a Biotek Synergy 2 plate (Winnoski, Vt.). Using GraphPad Prism version 6.04 software program, (GraphPad Software, San Diego, Calif., www.graphpad.com), a four parameter curve fit was used to determine the inhibitor IC50s from a plot of the mean reaction velocity versus the inhibitor concentration. Ki values were calculated from the IC50 values using the Cheng and Prusoff equation (Ki=IC50/(1+[S]/Km).

The next experiment deals with Factor Xa (Homo sapiens, UniProt P00742). Put plainly: Chromogenic kinetic enzyme assay of Factor Xa. The method, then: as §1
A further experiment addresses T2, hepsin (Homo sapiens, UniProt P05981).
T2 construct: purchased R&D Systems 4776-SE-010
Put plainly: Fluorescent kinetic enzyme inhibitor assay of hepsin. The settings on record: for Ki: Table 6.1, Fluorogenic Assay, read-out: Hepsin Ki. The procedure, abridged:
(§2)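 Fluorescence (ex 380/em 460 nm) followed kinetically at room temperature; IC50 from four-parameter fit of mean velocity versus concentration, averaged over three experiments.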

The target of experiment [2] is T1, HGFA. The experiment is described as follows: Chromogenic kinetic enzyme inhibitor assay of HGFA. The following applies: Table 4.1; chromogenic substrate Pefachrome FVIIa. The source says:
This PCR product was cloned into the SfoI-HindIII sites of a modified pFastBac HT baculovirus expression vector (Addgene, Cambridge, Mass.). This vector contains a six amino His tag followed by a seven amino spacer and a seven amino acid TEV cleavage site placed immediately downstream of the Honey Bee melittin signal peptide. Using a modified Bac to Bac Expression System (Life Technologies, Carlsbad, Calif.), recombinant HGFA bacmids were obtained by transforming DH10Bac Escherichia coli cells. To obtain HGFA containing baculovirus, purified bacmids were transfected into Sf9 insect cells. After 5 days in culture at 27° C., media was harvested from transfected Sf9 cells. This media was used to prepare baculovirus infected insect cells (BIICs). These BIIICs were used to infect High 5 insect cells. Four days post infection, media was harvested and recombinant protein prepared as follows. Media was chilled to 4° C. and spun at 4000×g for 20 minutes (all subsequent steps were performed at 4° C. unless noted). […] Concentrated media was then buffer exchanged in two steps, five volumes of 50 mM Na-phosphate, 500 mM NaCl, pH 6.2, followed by five volumes of 50 mM Na-phosphate, 500 mM NaCl, pH 7.5. […] After mixing this slurry for 12 hours, nickel agarose beads were allowed to settle by gravity and then loaded into a column. Beads were washed with buffer (25 mM Na-phosphate, 500 mM NaCl, 25 mM imidazole, pH 8) and the bound protein eluted using (25 mM Na-phosphate, 500 mM NaCl, 250 mM imidazole, pH 8). Using a Amicon Ultra-4 Centrifugal filters (#UFC801008, Merck Millipore, Ltd., Tullagreen, Ireland), peak protein fractions were concentrated and run over a Superdex-200 10/300 GL column (GE Healthcare Life Sciences, Piscataway, N.J.) in 10 mM Tris, 200 mM NaCl, 0.2 mM EDTA, pH 8. HGFA containing fractions were pooled, concentrated, made 50% glycerol, and stored at minus 20° C. Protein was quantitated using a modified Lowry protein assay (#500-0006, Bio-Rad Laboratories, Hercules, Calif.).
Using Gen 5 2.00 software program (Biotek, Winnoski, Vt.), a four parameter curve fit was used to determine the inhibitor IC50s from a plot of the mean reaction velocity versus the inhibitor concentration. The IC50 values represent the average of three separate experimental determinations.

The target in a further experiment is T3, matriptase (Homo sapiens, UniProt Q9Y5Y6).
T3 construct: Charles Craik, UCSF (obtained from another laboratory)
T3 sequence (Q9Y5Y6 615-855 limits assumed): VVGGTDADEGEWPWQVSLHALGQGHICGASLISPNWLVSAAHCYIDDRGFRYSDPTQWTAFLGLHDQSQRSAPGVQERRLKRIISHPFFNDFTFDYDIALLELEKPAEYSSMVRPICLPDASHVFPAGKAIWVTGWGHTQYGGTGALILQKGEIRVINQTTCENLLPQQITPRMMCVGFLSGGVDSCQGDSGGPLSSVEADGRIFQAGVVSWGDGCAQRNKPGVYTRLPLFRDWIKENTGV
Put plainly: Fluorescent kinetic enzyme inhibitor assay of matriptase. The following applies: Table 4.1. The procedure, abridged: as §2

The mark [3] stands for this setting: Table 6.2, headed Fluorogenic Assay, read-out: Thrombin Ki.
Setting [4] is: Table 6.2, headed Fluorogenic Assay, read-out: Factor Xa Ki.

T2 sequence (P05981 163-417 limits assumed): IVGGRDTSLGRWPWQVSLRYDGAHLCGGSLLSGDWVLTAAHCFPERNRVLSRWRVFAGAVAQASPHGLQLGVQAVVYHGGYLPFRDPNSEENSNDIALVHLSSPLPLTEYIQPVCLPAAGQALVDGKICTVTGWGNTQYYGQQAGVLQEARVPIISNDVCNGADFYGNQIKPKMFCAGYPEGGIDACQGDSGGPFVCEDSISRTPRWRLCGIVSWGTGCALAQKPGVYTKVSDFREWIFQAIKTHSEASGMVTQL
T2 sequence (P05981 45-162 partner limits assumed): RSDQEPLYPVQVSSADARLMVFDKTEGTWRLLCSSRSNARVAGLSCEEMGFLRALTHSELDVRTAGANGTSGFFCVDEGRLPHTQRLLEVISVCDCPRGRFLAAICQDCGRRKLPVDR
Chain of Factor Xa (P00742 235-488 limits assumed): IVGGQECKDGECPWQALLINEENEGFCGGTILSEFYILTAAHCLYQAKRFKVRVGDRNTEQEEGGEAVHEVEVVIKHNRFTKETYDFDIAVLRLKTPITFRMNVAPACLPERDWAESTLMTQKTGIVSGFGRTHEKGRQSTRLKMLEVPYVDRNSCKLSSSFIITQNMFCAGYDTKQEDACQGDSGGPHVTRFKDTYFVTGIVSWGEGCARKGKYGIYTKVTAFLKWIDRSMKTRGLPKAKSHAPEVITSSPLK
Chain of Factor Xa (P00742 41-179 partner limits assumed): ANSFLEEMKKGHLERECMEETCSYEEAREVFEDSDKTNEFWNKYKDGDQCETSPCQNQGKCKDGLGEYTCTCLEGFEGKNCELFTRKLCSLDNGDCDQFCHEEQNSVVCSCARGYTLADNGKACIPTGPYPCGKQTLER

For orientation: Ki means the equilibrium dissociation constant of an inhibitor or competing ligand from its target. Turning to `CC(=O)N[C@@H](Cc1c[nH]c2ccccc12)C(=O)N[C@@H](CC(C)C)C(=O)N[C@@H](Cc1ccccc1)C(=O)N[C@@H](CCCNC(=N)N)C(=O)c1nc2ccccc2s1` [Compound 7064, Ac-WLFR(SEQ ID NO: 20)-Kbt], the Ki was 133 nM on HGFA [1] (Table 6.1, Fluorogenic Assay); above 20000 nM at thrombin (setting [3]); 1 nM at Factor Xa (setting [4]).

In the case of `CC(=O)N[C@@H](CO)C(=O)N[C@@H](CCCCN)C(=O)N[C@@H](CC(C)C)C(=O)N[C@@H](CCCNC(=N)N)C(=O)c1nc2ccc(C(=O)N[C@H](C(N)=O)C(C)C)cc2s1` [Compound 7116, Ac-SKLR(SEQ ID NO: 10)-Kbt-Val— NH2] (Ac-SKL[X1]V-NH2), the Ki at HGFA [1] (Table 6.1, Fluorogenic Assay) is 13 nM; at hepsin it was 0.19 nM; at thrombin it was 4500 nM; on Factor Xa it was 385 nM.

With `CC(=O)N[C@@H](CO)C(=O)N[C@@H](CCCCN)C(=O)N[C@@H](CC(C)C)C(=O)N[C@@H](CCCNC(=N)N)C(=O)c1nc2ccc(C(=O)O)cc2s1` [Compound 7118, Ac-SKLR(SEQ ID NO: 10)-Kbt-COOH], the Ki on HGFA [1] (Table 6.1, Fluorogenic Assay) was 132 nM; on thrombin (setting [3]), above 2000 nM; on Factor Xa (setting [4]), 1250 nM.

Turning to `CC(=O)N[C@@H](CO)C(=O)N[C@@H](CCCCN)C(=O)N[C@@H](CC(C)C)C(=O)N[C@@H](CCCNC(=N)N)C(=O)c1nc2ccc(C(=O)N[C@@H](Cc3c[nH]c4ccccc34)C(N)=O)cc2s1` [Compound 7124, Ac-SKLR(SEQ ID NO: 10)-Kbt-Trp— NH2] (Ac-SKL[X1]W-NH2), the inhibition constant (Ki) is 15.8 nM on HGFA [1] (Table 6.1, Fluorogenic Assay); 1230 nM on thrombin (setting [3]); 163 nM at Factor Xa (setting [4]).

With `CC(=O)N[C@@H](CO)C(=O)N[C@@H](CCCCN)C(=O)N[C@@H](CC(C)C)C(=O)N[C@@H](CCCNC(=N)N)C(=O)c1nc2ccc(C(=O)N[C@@H](Cc3ccccc3)C(N)=O)cc2s1` [Compound 7125, Ac-SKLR(SEQ ID NO: 10)-Kbt-Phe— NH2] (Ac-SKL[X1]F-NH2), the Ki amounted to 17.3 nM at HGFA [1] (Table 6.1, Fluorogenic Assay); 0.14 nM on hepsin; 3640 nM at thrombin (setting [3]); 544 nM at Factor Xa (setting [4]).

`CC(=O)N[C@@H](CO)C(=O)N[C@@H](CCCCN)C(=O)N[C@@H](CC(C)C)C(=O)N[C@@H](CCCNC(=N)N)C(=O)c1nc2ccc(C(=O)Nc3ccncc3)cc2s1` [Compound 7126, Ac-SKLR(SEQ ID NO: 10)-Kbt-4-pyridinylamide]: the Ki at HGFA [1] (Table 6.1, Fluorogenic Assay) came to 31.8 nM; on hepsin, 0.14 nM; on thrombin (setting [3]), 3430 nM; on Factor Xa (setting [4]), 221 nM.

With `CC(=O)N[C@@H](CO)C(=O)N[C@@H](CCCCN)C(=O)N[C@@H](CC(C)C)C(=O)N[C@@H](CCCNC(=N)N)C(=O)c1nc2ccc(C(=O)NCc3ccccc3)cc2s1` [Compound 7139, Ac-SKLR(SEQ ID NO: 10)-Kbt- benzylamide], the Ki was 9.1 nM on HGFA [1] (Table 6.1, Fluorogenic Assay); 2470 nM at thrombin (setting [3]); 190 nM at Factor Xa (setting [4]).

As for `CC(=O)N[C@@H](CO)C(=O)N[C@@H](CCCCN)C(=O)N[C@@H](CC(C)C)C(=O)N[C@@H](CCCNC(=N)N)C(=O)c1nc2ccc(C(=O)NC3CCNCC3)cc2s1` [Compound 7140, Ac-SKLR(SEQ ID NO: 10)-Kbt-4-piperidinylamide], the inhibitory constant (Ki) on HGFA [1] (Table 6.1, Fluorogenic Assay) turned out to be 7.7 nM; at thrombin (setting [3]) it was 2950 nM; at Factor Xa (setting [4]), 447 nM.

For `CC(=O)N[C@@H](CCCCN)C(=O)N[C@@H](CCCNC(=N)N)C(=O)N[C@@H](CC(C)C)C(=O)N[C@@H](CCCNC(=N)N)C(=O)c1nc2ccc(C(=O)NCc3cccc(C(=O)O)c3)cc2s1` [Compound 7165, Ac-KRLR(SEQ ID NO: 8)-Kbt-5-COOH], the Ki stood at 6.07 nM at HGFA [1] (Table 6.1, Fluorogenic Assay); 1940 nM on thrombin (setting [3]); 20.2 nM at Factor Xa (setting [4]).

`CC(C)C[C@H](NC(=O)[C@@H](N)Cc1c[nH]c2ccccc12)C(=O)N[C@@H](CCCNC(=N)N)C(=O)c1nc2ccccc2s1` [Compound 7170, H-WLR-kbt]: the inhibition constant Ki was determined as 104 nM at HGFA [1] (Table 6.1, Fluorogenic Assay); 457 nM on thrombin (setting [3]); 532 nM at Factor Xa (setting [4]).

On to `CC(C)C[C@H](NC(=O)[C@@H](N)CCCNC(=N)N)C(=O)N[C@@H](CCCNC(=N)N)C(=O)c1nc2ccccc2s1` [Compound 7171, H-RLR-kbt], for which the Ki on HGFA [1] (Table 6.1, Fluorogenic Assay) was determined as 83.1 nM; at thrombin (setting [3]), 8200 nM; at Factor Xa (setting [4]), 56 nM.

For the compound `CC(C)C[C@H](NC(=O)[C@@H](N)CCCNC(=N)N)C(=O)N[C@@H](CCCNC(=N)N)C(=O)c1nc2ccc(C(=O)N[C@H](C(N)=O)C(C)C)cc2s1` [Compound 7180, H-RLR-kbt V amide], the inhibitory constant (Ki) on HGFA [1] (Table 6.1, Fluorogenic Assay) is 12.5 nM; on thrombin (setting [3]), 548 nM; on Factor Xa (setting [4]), 18 nM.

For the compound `CC(C)C[C@H](NC(=O)[C@@H](N)Cc1c[nH]c2ccccc12)C(=O)N[C@@H](CCCNC(=N)N)C(=O)c1nc2ccc(C(=O)N[C@H](C(N)=O)C(C)C)cc2s1` [Compound 7181, H-WLR-kbt V amide], the Ki on HGFA [1] (Table 6.1, Fluorogenic Assay) turned out to be 73.9 nM; on thrombin (setting [3]) it was 41 nM; at Factor Xa (setting [4]), 159 nM.

In the case of `CC(C)C[C@H](NC(=O)[C@@H](N)CC(C)C)C(=O)N[C@@H](CCCNC(=N)N)C(=O)c1nc2ccc(C(=O)N[C@H](C(N)=O)C(C)C)cc2s1` [Compound 7182, H-LLR-kbt V amide], the Ki on HGFA [1] (Table 6.1, Fluorogenic Assay) came out at 82.1 nM; at thrombin (setting [3]), 101 nM; on Factor Xa (setting [4]), 159 nM.

For `CC(C)C[C@H](NC(=O)OCC1c2ccccc2-c2ccccc21)C(=O)N[C@@H](CCCNC(=N)N)C(=O)c1nc2ccccc2s1` [Compound 7185-11, Fmoc-LR-kbt], the Ki on HGFA [1] (Table 6.1, Fluorogenic Assay) turned out to be 450 nM; at thrombin (setting [3]), 995 nM; at Factor Xa (setting [4]), 410 nM.

One may read the IC50 as the concentration at which inhibition is half-maximal. Turning to `CC(=O)N[C@@H](CC(C)C)C(=O)N[C@@H](CC(C)C)C(=O)N[C@H](C=O)CCCNC(=N)N` [Leupeptin, reference compound], the IC50 worked out at 535 nM against HGFA [2], 1150 nM at matriptase and 256 nM on hepsin (Table 4.1). The “fold selective for HGFA over matriptase” value at HGFA [1] is 3 fold. The Ki at HGFA [1] (Table 4.2, Boc-QLR-AMC substrate) worked out at 188 nM. Moreover, the “fold more potent for hepsin versus HGFA” value on hepsin is given as 3 fold.
